Test results published in PubChem BioAssay (NCI).
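Cultured in 96-well plates, cells were exposed to test compound for 48 hours across five concentrations. Here, GI50 denotes the concentration required for 50% inhibition of growth. At the TGI there is no net growth.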

Assays:
Experiment in all cases: growth of human tumour cells (NCI), 48 h
[1] = tested on: 786-0 renal
[2] = tested on: A498 renal
[3] = tested on: A549 NSCLC
[4] = tested on: ACHN renal
[5] = tested on: BT-549 breast
[6] = tested on: CAKI-1 renal
[7] = tested on: CCRF-CEM leukemia
[8] = tested on: COLO 205 colon
[9] = tested on: DU-145 prostate
[10] = tested on: EKVX NSCLC
[11] = tested on: HCC-2998 colon
[12] = tested on: HCT-116 colon
[13] = tested on: HCT-15 colon
[14] = tested on: HL-60(TB) leukemia
[15] = tested on: HOP-62 NSCLC
[16] = tested on: HOP-92 NSCLC
[17] = tested on: HS 578T breast
[18] = tested on: HT29 colon
[19] = tested on: IGROV1 ovarian
[20] = tested on: K-562 leukemia
[21] = tested on: KM12 colon
[22] = tested on: LOX IMVI melanoma
[23] = tested on: M14 melanoma
[24] = tested on: MALME-3M melanoma
[25] = tested on: MCF7 breast
[26] = tested on: MDA-MB-231 breast
[27] = tested on: MDA-MB-435
[28] = tested on: MDA-MB-468 breast
[29] = tested on: MOLT-4 leukemia
[30] = tested on: NCI-H226 lung
[31] = tested on: NCI-H23 lung
[32] = tested on: NCI-H460 lung
[33] = tested on: NCI-H522 lung
[34] = tested on: NCI/ADR-RES ovarian
[35] = tested on: OVCAR-3 ovarian
[36] = tested on: OVCAR-4 ovarian
[37] = tested on: OVCAR-5 ovarian
[38] = tested on: OVCAR-8 ovarian
[39] = tested on: PC-3 prostate
[40] = tested on: RPMI-8226 leukemia
[41] = tested on: RXF 393 renal
[42] = tested on: SF-268 CNS
[43] = tested on: SF-295 CNS
[44] = tested on: SF-539 CNS
[45] = tested on: SK-MEL-2 melanoma
[46] = tested on: SK-MEL-28 melanoma
[47] = tested on: SK-MEL-5 melanoma
[48] = tested on: SK-OV-3 ovarian
[49] = tested on: SN12C renal
[50] = tested on: SNB-19 CNS
[51] = tested on: SNB-75 CNS
[52] = tested on: SR leukemia
[53] = tested on: SW-620 colon
[54] = tested on: T-47D breast
[55] = tested on: TK-10 renal
[56] = tested on: U251 CNS
[57] = tested on: UACC-257 melanoma
[58] = tested on: UACC-62 melanoma
[59] = tested on: UO-31 renal

Work on `O=C1Nc2cc(-c3ccc(NS(=O)(=O)c4ccc(-c5ccccc5)cc4)cc3)ccc2/C1=C/c1ccc[nH]1` yielded a GI50 [1] of 3.91 µM, a TGI [1] of 13.9 µM and a GI50 [2] of 12.6 µM. For the same molecule, the TGI [2] was 25.1 µM, the GI50 [3] was 1.82 µM and the TGI [3] was 4.86 µM. It also gave a GI50 [4] of 6.16 µM, a TGI [4] of 18.7 µM and a GI50 [5] of 2.49 µM. It also gave a TGI [5] of 7.75 µM, a GI50 [6] of 5.64 µM and a TGI [6] of 18.4 µM. It also gave a GI50 [7] of 5.82 µM, a TGI [7] of 18.6 µM and a GI50 [8] of 3.7 µM. For the same molecule, the TGI [8] was 14 µM, the GI50 [9] was 2.09 µM and the TGI [9] was 4.59 µM. The GI50 [10] was 0.225 µM, the TGI [10] was 8.94 µM and the GI50 [11] was 4.88 µM. It also gave a TGI [11] of 28.4 µM, a GI50 [12] of 3.28 µM and a TGI [12] of 11.2 µM. For the same molecule, the GI50 [13] was 2.26 µM, the TGI [13] was 7.86 µM and the GI50 [14] was 7.67 µM. For the same molecule, the TGI [14] was 31.7 µM, the GI50 [15] was 8.59 µM and the TGI [15] was 21.8 µM. It also gave a GI50 [16] of 2.2 µM, a TGI [16] of 7.22 µM and a GI50 [17] of 12.2 µM. The TGI [17] was 56.7 µM, the GI50 [18] was 2.42 µM and the TGI [18] was 6.71 µM. It also gave a GI50 [19] of 8.34 µM, a TGI [19] of 22.2 µM and a GI50 [20] of 3.8 µM. It also gave a TGI [20] of 16.6 µM, a GI50 [21] of 2.48 µM and a TGI [21] of 18.7 µM. The GI50 [22] was 2.59 µM, the TGI [22] was 6.82 µM and the GI50 [23] was 4.7 µM. The TGI [23] was 16.8 µM, the GI50 [24] was 2.79 µM and the TGI [24] was 9.7 µM. It also gave a GI50 [25] of 0.0746 µM, a TGI [25] of 1.54 µM and a GI50 [26] of 2.96 µM. For the same molecule, the TGI [26] was 11.6 µM, the GI50 [27] was 5.71 µM and the TGI [27] was 21 µM. The GI50 [28] was 0.0402 µM, the TGI [28] was 1.04 µM and the GI50 [29] was 3.88 µM. For the same molecule, the TGI [29] was 17.7 µM, the GI50 [30] was 1.9 µM and the TGI [30] was 14.8 µM. For the same molecule, the GI50 [31] was 1.2 µM, the TGI [31] was 5.91 µM and the GI50 [32] was 0.351 µM. For the same molecule, the TGI [32] was 2.13 µM, the GI50 [33] was 2.27 µM and the TGI [33] was 7.94 µM. It also gave a GI50 [34] of 6.29 µM, a TGI [34] of 30.9 µM and a GI50 [35] of 1.94 µM. For the same molecule, the TGI [35] was 4.65 µM, the GI50 [36] was 2.1 µM and the TGI [36] was 11.9 µM. For the same molecule, the GI50 [37] was 3.42 µM, the TGI [37] was 14.3 µM and the GI50 [38] was 3.45 µM. For the same molecule, the TGI [38] was 12.2 µM, the GI50 [39] was 3.27 µM and the TGI [39] was 18.1 µM. It also gave a GI50 [40] of 3.09 µM, a TGI [40] of 15.7 µM and a GI50 [41] of 2.48 µM. The TGI [41] was 5.56 µM, the GI50 [42] was 4.26 µM and the TGI [42] was 16.3 µM. It also gave a GI50 [43] of 7.29 µM, a TGI [43] of 19.8 µM and a GI50 [44] of 3.66 µM. It also gave a TGI [44] of 14.7 µM, a GI50 [45] of 11.8 µM and a TGI [45] of 24.4 µM. It also gave a GI50 [46] of 3.77 µM, a TGI [46] of 13.5 µM and a GI50 [47] of 6.91 µM. The TGI [47] was 21.8 µM, the GI50 [48] was 13.3 µM and the TGI [48] was 26 µM. For the same molecule, the GI50 [49] was 3.07 µM, the TGI [49] was 12 µM and the GI50 [50] was 5.91 µM. It also gave a TGI [50] of 18.7 µM, a GI50 [51] of 12.8 µM and a TGI [51] of 35.6 µM. For the same molecule, the GI50 [52] was 1.9 µM, the TGI [52] was 10.9 µM and the GI50 [53] was 2.45 µM. It also gave a TGI [53] of 6.56 µM, a GI50 [54] of 0.136 µM and a TGI [54] of 3.57 µM. The GI50 [55] was 2.66 µM, the TGI [55] was 11 µM and the GI50 [56] was 2.18 µM. For the same molecule, the TGI [56] was 5.73 µM, the GI50 [57] was 5.84 µM and the TGI [57] was 20.4 µM. The GI50 [58] was 5.37 µM, the TGI [58] was 19.7 µM and the GI50 [59] was 10.7 µM. For the same molecule, the TGI [59] was 29.1 µM.
